Data: publication PMC11031295 (ChemMedChem, 2024)
“Also recorded” adds a separate entry of the source.

How the values were obtained:
ERCC1 = details: binding pocket on ERCC1; cited from earlier work
[1] = target: T1, ERCC1/XPA protein-protein interaction (MBP-ERCC1 central domain / fluorescein-labeled XPA67-80 peptide) (Homo sapiens, UniProt P07992); assay: Fluorescence polarization; type: binding
T1 sequence (P07992 96-214): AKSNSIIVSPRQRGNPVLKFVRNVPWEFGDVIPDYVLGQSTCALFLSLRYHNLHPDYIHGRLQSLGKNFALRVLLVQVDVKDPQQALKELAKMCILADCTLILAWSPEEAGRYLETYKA

[2] = target: T2, 15N-labeled human ERCC1 fragment containing residues 96-214 (Homo sapiens, UniProt P07992); assay: Backbone chemical shift perturbation mapping by NMR; type: binding; details: 0.25 mM ERCC1, titration with compound 1, pH 7.5, 28 °C
T2 sequence (P07992 96-214): T1 sequence (P07992 96-214)

Molecule	binding affinity to ERCC1 (in words) (ERCC1)	EC50 [1]	binding site on ERCC1 (in words) [2]
14-mer peptide corresponding to residues 67-80 of XPA: truncated 14-mer peptide corresponding to residues 67-80 of XPA (KIIDTGGGFILEEE; UniProt P23025 67-80, looked up, fragment)	sub-micromolar affinity		
Cc1cc(C)c(C#N)c(SCC(O)c2cccc([N+](=O)[O-])c2)n1 (stereo not drawn) [Compound 1, 2-[2-hydroxy-2-(3-nitrophenyl)ethyl]sulfanyl-4,6-dimethyl-pyridine-3-carbonitrile]		21 µM	binds within the same site as the truncated XPA67-80 peptide; also recorded: binds to the same site as the truncated XPA 14-mer; also recorded: binds to the same central domain of ERCC1 as truncated XPA peptides
